Marks after values point to notes of the source that are not given here.
Columns and labels:
[1] = test system: neonate rat cardiomyocyte cells; assay: Hypoxia/ischemia in neonatal rat cardiomyocyte cultures, LDH release; type: cell-based; settings: 30, 100 and 300 nm compound vs 1 μM TPEN; 150 min ischemia then reoxygenation
Experimental: Rat hearts (1-2 days old) were sterilely removed and bathed three times in Ca^2+- and Mg^2+-free PBS to remove excess blood cells. The hearts were minced to small fragments and then agitated in a proteolytic enzyme-RDB solution prepared from a fig tree extract as described previously (Brik et al., 1990; Shneyvays et al., 2001). The RDB was diluted 1:200 in PBS at 25° C. for a few cycles of 10 min each. The supernatant suspension containing dissociated cells, to which medium containing 10% horse serum was added, was centrifuged at 500 g for 5 min. After centrifugation, the supernatant phase was discarded, and cells were resuspended in Dulbecco's modified Eagle medium supplemented with 10% heat-inactivated horse serum and 0.5% chick embryo extract. Cell suspensions were diluted to 1×10^6 cells/ml, and 300 μl was placed in 24 well plates (4 plates) collagen/gelatin-coated plastic culture dishes. Cultures were incubated in a humidified atmosphere of 5% CO2 and 95% air at 37° C. […] The growth medium was replaced every 3 days. The experiments were performed in vitro on these cardiomyocyte cultures after 3 to 5 days. […]
LDH activity was determined using LDH-L kit (Thermo Trace, Melbourne, Australia) within the cardiac cell medium (PBS). […] LDH enzymatic activity was measured in a spectrophotometer at a wavelength of 340 nm at 30° C. […]

[2] = test system: model of ischemia/reperfusion in the CD rat; assay: Rat model of ischemia/reperfusion, infarct analysis (Phase B); type: in vivo; settings: positive control 5000 IU/kg bolus intravenous injection
Experimental: This study was conducted to evaluate the effects of the Compound #6 on cardiac function, infarct size, and Troponin I levels in a model of ischemia/reperfusion in the CD® (CR1CD® (SD)) rat. Phase A was conducted for toxicity evaluation purposes. In Phase B (the efficacy phase), two treatment groups of eight male rats were administered Compound #6 at dose levels of 0.2 and 2 mg/kg via intravenous infusion following myocardial infarction. The 2 mg/kg dose of Compound #6 was administered intravenously via a slow infusion starting 3 to 14 minutes prior to reperfusion and continuing for 20 minutes to 20 minutes and 32 seconds, which was approximately 6 to 17 minutes after reperfusion (depending on the infusion start time). The 0.2 mg/kg dose of Compound #6 was administered intravenously via a slow infusion starting 10 minutes prior to reperfusion and continuing for 30 minutes to 30 minutes and 30 seconds, which was approximately 20 minutes after reperfusion.
The animals were placed on mechanical ventilation and […]. Once anesthetized, the animal was placed in a right lateral recumbency, an arterial catheter or polyethylene tube was placed in the carotid artery for monitoring blood pressure and a thoracotomy was performed. The left coronary artery (LCA) was identified. A ligature was placed around the LCA and the vessel was ligated. The LCA was maintained occluded for 29 to 43 minutes. Occlusion of the vessel was verified via blanching of the heart and via ST interval changes. At the end of the occlusion period, the knot was loosened leaving the ligature in place, and the vessel was allowed to reperfuse for 3 hours 27 minutes to 4 hours 51 minutes. Following infarct, a chest tube was placed, the deep and superficial muscle layers were sutured at the surgical incision, and the skin was closed with staples. The chest tube was removed after spontaneous respiration was established. In Phase A, the animals were recovered from anesthesia and evaluated for 4 days. In Phase B, animals were maintained under anesthesia for 3 hours 27 minutes to 4 hours 51 minutes prior to being submitted to necropsy.
(§1) In Phase B, Compound #6 was administered once on Day 0 via intravenous infusion at dose levels of 0.2 and 2 mg/kg. The doses were administered at a dose volume of 1 mL/kg (0.05 [2 mg/kg] or 0.033 [0.2 mg/kg] mL/kg/minute). Two control groups received the vehicle (saline) or the vehicle for Compound #6 (10% (w/v) 2-hydroxypropyl-beta-cyclodextrin and 100 mM sodium chloride in deionized water) in the same manner as the 2 mg/kg treated group. The vehicles and 2 mg/kg Compound #6 were administered intravenously via a slow infusion starting 3 to 14 minutes prior to reperfusion and continuing for 20 minutes to 20 minutes and 32 seconds, which was approximately 6 to 17 minutes after reperfusion (depending on the infusion start time). The 0.2 mg/kg Compound #6 was administered intravenously via a slow infusion starting 10 minutes prior to reperfusion and continuing for 30 minutes to 30 minutes and 30 seconds, which was approximately 20 minutes after reperfusion. The positive control article, Erythropoietin, was administered at 5000 IU/kg via a bolus intravenous injection. The positive control article dose was administered at a dose volume of 2.5 mL/kg. The positive control was administered via a 3 to 60 second injection at 5 minutes prior to reperfusion.
After LAD reperfusion (4 hours), the animals were euthanized by an intraperitoneal injection of sodium pentobarbital followed by exsanguination via severing the abdominal vena cava. The heart was flushed with heparinized Lactated Ringers Solution (LRS) until clear of blood and the LAD was tied off using the same ligature used to occlude the vessel and Evan Blue dye was injected. The heart was weighed and breadloafed (4-5 sections per animal). […]

[3] = test system: model of ischemia/reperfusion in the CD rat; assay: Rat model of ischemia/reperfusion, cardiovascular monitoring (blood pressure, heart rate; Phase B); type: in vivo; settings: positive control 5000 IU/kg bolus; within 5-10 minutes of reperfusion
Experimental: The animals in Phase B were monitored for selected cardiovascular endpoints from at least 15 minutes prior to acute myocardial infarction until at approximately 1 hour post reperfusion. Blood samples for the evaluation of Troponin I were collected from all surviving Phase B animals prior to coronary artery occlusion and at termination. At study termination, the Phase B animals were submitted to necropsy for limited necropsy examinations and infarct analysis.
as §1
In Phase B, animals were anesthetized for monitoring of selected cardiovascular parameters. For experimentation, the blood pressure catheter implanted in the carotid artery was attached to an external transducer and data acquisition was started. Blood pressure (systolic, diastolic, and mean arterial) and heart rate (derived from blood pressure) were monitored from at least 15 minutes prior to acute myocardial infarction (AMI) until at least 1 hour after reperfusion. Individual animal cardiovascular data tables are not reported but are maintained in the study file.

PC12 cells = assay: PC12 ischemic model (oxygen and glucose deprivation), cell death by LDH measurement; type: cell-based; settings: for protection percentile: protection from cell death, FIG. 6B: identical for both compounds
Experimental: PC12 cells were grown in 25 cm^2 flasks in Dulbecco's modified Eagles Medium (DMEM), supplemented with 7% fetal bovine serum (FBS), 7% horse serum, […] penicillin and 100 μg/ml streptomycin. Cells were grown in humidified incubator 5% CO2, 95% air at 37° C. The medium was replaced every 2 days, and upon 70% confluence, the cells were counted and seeded for the ischemia experiments.
Approximately 1×10^6 PC12 cells/well were cultured and exposed to ischemia (oxygen and glucose deprivation=OGD) for 4.5 hr. Prior to the exposure, the growth medium was replaced with glucose-free DMEM (1 ml/well). Ischemia was performed in a closed chamber by replacement of air with 95% nitrogen/5% CO2.
Ischemic stress injury was characterized by lactate dehydrogenase (LDH) released from cells. After 4.5 hr of ischemia, a 50 μl sample of supernatant was taken from each well for LDH measurement. At the end of the ischemic insult (after 4.5 hr), glucose (at final concentration of 4.5 g/L by adding 10 μl from stock solution of 450 mg/ml per well (1 ml)) was added to the plates which underwent ischemia. The plates were then transferred to a humidified incubator and exposed to 95% air/5% CO2 at 37° C. for additional 18 hr of reoxygenation. DMEM supernatant samples (25 μl/well) were collected from each well for LDH measurements. The samples were centrifuged at 3500 rpm for 5 min, and 5 μl aliquots of supernatant was taken for LDH measurement.
For every experiment, a duplicate plate was prepared as a control study under normoxia. Cells were kept in a humidified incubator (5% CO2 and 95% air at 37° C.) in cell culture complete medium at a volume of 1 ml for 18 hr, and the same compounds were added with the same concentrations. Supernatant was collected for LDH measurement as indicated in the LDH activity measurement section below. Afterwards (at the end of the reoxygenation phase), the plates were frozen (at −70° C. for 30 min) and thawed once. 25 μl/well sample was collected and the samples were centrifuged at 3500 rpm for 5 min and then taken for LDH measurement (total).
LDH activity was determined using LDH-L kit (Pointe Scientific Inc., Michigan, USA) in the PC12 cell medium. Medium samples (5 μl) were collected at the end of the ischemic insult (after 4.5 hr) and after the reoxygenation period. In parallel, samples from the plates exposed to normoxia were collected. LDH enzymatic activity was measured in a spectrophotometer at a wavelength of 340 nm at 37° C. Data analysis was performed as follows: [OD (cycle 3)−OD (cycle 1)experiment]−[OD(3)−OD(1) control])/[OD(3)−OD(1) total]×100, and presented as percentage of total cell death.
One day before the experiment, 12-well plates were coated with 200 μg/ml type I rat tail collagen (BD Biosciences, Bedford, Mass.) and were further sterilized under UV. 1×10^6 PC12 undifferentiated cells/well were seeded on the plates and allowed to adhere overnight under regular conditions (DMEM medium high glucose 4.5 mg/ml, 5% CO2 and 95% air at 37° C.). Each experiment included 4 plates, two for normoxia and two for ischemia which underwent the same following treatment for all 4 plates.
A half hour before the onset of the ischemic insult, the antioxidant Tempol (4-hydroxy-2,2,6,6-tetramethylpiperidine-1-oxyl) (Sigma, St. Louis, Mo.) at a concentration of 0.5 mM (10 μl/well taken from a 8.6 mg/ml stock solution) or TPEN at a concentration of 3 μM and 10 μM were added to the plates. Before the experiments, the medium was replaced with DMEM glucose free medium at 1 ml volume/well. TPEN or 10 μl Tempol were again added to the appropriate wells and was maintained throughout all experiments.
Thereafter, the plates were introduced into a device inducing ischemia atmosphere with 95% nitrogen and 5% CO2 for 4.5 hr. Oxygen level was monitored online by a digital oxygen monitor showing up to 1%. At the end of OGD, 25 μl from each well was collected into 0.5 ml tubes for the LDH assay. […]

For c1c[nH]c(CN(CCN(Cc2ncc[nH]2)Cc2ncc[nH]2)Cc2ncc[nH]2)n1 [Compound #4], the “protective effect against hypoxic insult (LDH release) compared with TPEN, FIG. 1A” value [1] was “only slightly more effective than TPEN”.

With “EPO: positive control article, erythropoietin [reference compound]” the “cardiac damage compared to saline control animals, in words” value [2] was “significantly less cardiac damage”, the “Infarct/AAR (%) Mean” value ([2]; 4 hour reperfusion, rat) was 22^b % and the “Infarct/LV (%) Mean” value ([2]; rat) was 8%. The “mean arterial pressures after reperfusion” value [3] was “increased”.

For c1ccc(CN(CCN(Cc2ccccn2)Cc2ccccn2)Cc2ccccn2)nc1 [TPEN, N,N,N′,N′-tetrakis-(2-pyridylmethyl)-ethylenediamine, reference compound], the “reducing death of PC12 cells subjected to ischemia (LDH), FIG. 2” value (PC12 cells; 10 μM, 4.5 hours ischemia) was “effective”, the “reducing death of PC12 cells, comparison vs. Tempol, FIG. 2” value (PC12 cells; TPEN 10 μM vs Tempol 0.5 mM, 4.5 hours ischemia) was “significantly effective vs. Tempol” and the “protection percentile: protection from cell death, FIG. 6B” value (PC12 cells; first of two selected concentrations (not given)) was 7%. The “protection percentile: protection from cell death, FIG. 6B” value (PC12 cells; second of two selected concentrations (not given)) was 19%.

Reference: patent publication US20140228407A1, “TETRA-PYRIDINE COMPOUNDS AND COMPOSITION FOR PROTECTING CELLS, TISSUES AND ORGANS AGAINST ISCHEMIA-REPERFUSION INJURY” (YISSUM RESEARCH DEVELOPMENT COMPANY OF THE HEBREW …, priority 2011, published 2014)
